Reference: US20130203649A1, “INHIBITORS OF TLR SIGNALING BY TARGETING TIR DOMAIN INTERFACES” (UNIVERSITY OF MARYLAND, BALTIMORE, priority 2012, published 2013)
Residues, ends and D or L forms follow the SMILES beside them. No end group written: not given here.

Assays:
TLR4 [1] = test: LPS-induced cytokine secretion by mouse macrophages (ELISA/multiplex); format: cell-based; conditions: for LPS-induced Rantes production: 6 h supernatants; for Decrease in LPS-induced cytokine production (FIG. 2, 8 panels): LPS 10 ng/ml for 5, 6 or 24 h
Procedure: Cytokine secretion was measured in supernatant samples collected at 6 or 24 h time points and stored at −80° C. Samples were analyzed by a multiplex assay at the University of Maryland Baltimore Cytokine Core Facility using a Luminex 100 reader and Softmax Pro software, or by ELISA kits for mouse IL-6 or TNF-α from BioLegend (San Diego, Calif.) and LT-4000 microplate reader.
A total of 2×10^6 cells was plated in 12-well plates and treated with peptides for 30 min prior to LPS stimulation. TNF-α, IL-1β, IL-6, and IFN-β were measured using ELISA kits from BioLegend (San Diego, Calif.), as recommended by the manufacturer.

C57BL/6J mice = test: In vivo efficiency of decoy peptides (Table 1; LPS challenge in mice); set-up: species or system mouse
Procedure: FIG. 4. Effect of select TRAP decoy peptides on TNF-α and IL-6 in blood following an ip LPS challenge. C57BL/6J mice were injected with TR5, TR6, or TR7 peptide or mock-treated 1 hour before injection of purified E. coli LPS. Peptides and LPS were injected to mice intraperitonealy 10 nmol or 1 μg per gram of animal weight, correspondingly.
FIG. 10. […] (A-E) C57BL/6J mice were injected i.p. with purified Escherichia coli K235 LPS (1 μg/g) or PBS. Peptides (10 nmol/g of animal weight) were injected i.p. (A, B, D, E) or i.v. (C) 1 h before (A, B, and C) or 30 min after (D, E) i.p. injection of LPS. Data in panels A and D show plasma IL-6 and TNF-α levels measured 2 h after LPS challenge. Peptide TM8/9 was used as a non-inhibitory control peptide. Data represent the means±s.e.m. for 6-12 blood samples obtained in at least three independent experiments. *p<0.01. (F, G) C57BL/6J mice were challenged i.p. with a lethal LPS dose (17.5 μg/g). Peptides (10 nmol/g) were injected i.p. 1 h before LPS challenge. […] The statistical significance of changes in mortality and survival time was determined by the Mantel Cox log-rank test using GraphPad Prism software (Version 5.04). *p<0.01.
Eight-week-old C57BL/6J mice were injected with 1 or 17.5 μg/g animal weight of E. coli K235 LPS i.p. Peptides reconstituted in PBS were administered i.p. or i.v. Control groups received equivalent volume of solvent (PBS). The blood samples were collected 1, 2, 4, and 8 h, or 2, 8, and 24 h after LPS challenge. The plasma samples were obtained and kept frozen until TNF-α and IL-6 were measured by ELISA. Survival of animals was monitored every 6-16 h after LPS challenge. All animal experiments were carried out with institutional approval.

TLR4 [2] = test: LPS-induced MAPK (ERK, JNK, p38) activation in mouse macrophages (Western analysis); format: cell-based; conditions: for LPS-induced ERK phosphorylation / LPS-induced JNK activation: 30 min LPS 10 ng/ml
Procedure: Cellular protein extracts were isolated by addition of 240 μL per well cold lysate buffer (20 mM Tris, 50 mM NaCl, 1.5 mM MgCl2, 2 mM EDTA, 10 mM NaF, 2 Mm DTT, 1 mM Na3VO4, 1% Triton). Cells were incubated with lysis solution for 30 min on agitator at 4° C. Lysate was then collected and centrifuged at 14,000 g for 10 minutes at 4° C. After quantification using BioRad protein assay, protein samples were added to Laemmli buffer and then boiled for 10 min. Samples were then resolved by SDS-10% PAGE in Tris/glycine/SDS buffer (25 mM Tris, 250 mM glycine, 0.1% SDS), and transferred onto Immobilon P transfer membranes (Millipore, Bedford, Mass.) (100 V, 1.5 h, 4° C.). Membranes were blocked for 1 h in TBS-T (20 mM Tris-HCl, 150 mM NaCl, 0.1% Tween 20) containing 5% nonfat milk, then probed for overnight at 4° C. with the respective antibodies (Abs) (dilution 1:1000 in TBS-T with 2% BSA). After washing in TBS-T, membranes were incubated with secondary HRP-conjugated, donkey anti-rabbit IgG (1:10,000 dilution in TBS-T with 5% nonfat milk) for 1 h at room temperature. Membranes washed five times in TBS-T before development with ECL reagents (GE Healthcare) according to manufacturer's directions.
HEK293T cells were transfected with indicated plasmids using Superfect Transfection Reagent (Qiagen). Twenty-four hours posttransfection, the cells were lysed using the buffer containing 20 mM HEPES (pH 7.4), 150 mM NaCl, 10 mM NaF, 2 mM Na3VO4, 1 mM EDTA, 1 mM EGTA, 0.5% Triton X-100, 0.1 M DTT, 1 mM PMSF, and protease inhibitor mixture (Roche, Indianapolis, Ind.). Rabbit Ab against phospho-ERK, phospho-JNK, MyD88 (D80F5), STAT1-Y701, total STAT1, and GAPDH were purchased from Cell Signaling Technology (Beverly, Mass.). Rabbit anti-phospho-p38 Ab was purchased from Promega (Madison, Wis.). Goat anti-TLR4 (M−16), rabbit anti-TLR4 (H-80), anti-HA-HRP (F-7), and rabbit anti-b-actin Ab were purchased from Santa Cruz Biotechnology. Mouse anti-Flag M2 and rabbit anti-HA Ab were from Sigma-Aldrich. GFP Ab (A1122) was from Invitrogen. Protein was quantified using Bio-Rad protein quantification kit. Equal amount of protein was loaded and analyzed by 10% SDS-PAGE and immunoblotting. The cell extracts containing equal amount of protein were incubated with 1 μg Ab for 2 h, followed by 4-h incubation with 25 μl protein G agarose beads (Roche); the beads were then washed four times with lysis buffer, boiled in […] sample loading buffer, and analyzed by immunoblotting.
We next examined whether TRAM peptides inhibit the TLR4-mediated p38, ERK, and JNK MAPK activation. Murine macrophages pretreated with peptides for 30 min were challenged with LPS. Cell lysates were collected 30 min post-stimulation and analyzed for MAPK phosphorylation by Western analysis. Consistent with peptide effects on steady-state mRNA, both TM4 and TM6 inhibited activation of all three MAPKs (FIG. 5C). The inhibition of MAPKs by TM4 or TM6 was long lasting; it persisted for at least 1 h after LPS stimulation (data not shown). To characterize further the effects of TRAM peptides on MAPKs, murine macrophages were treated with TRAM peptides, but not challenged by LPS.

Compound | LPS-induced Rantes production (TLR4 [1]) | Decrease in LPS-induced cytokine production (FIG. 2, 8 panels) (TLR4 [1]) | In vivo efficiency (C57BL/6J mice) | LPS-induced ERK phosphorylation (TLR4 [2]; 20 μM peptide) | LPS-induced JNK activation (TLR4 [2]; 20 μM peptide) | LPS-induced cytokine secretion (TLR4 [1]; 5 or 20 μM peptide, LPS 100 ng/ml, supernatants 24 h) | LPS-induced p38, ERK, and JNK MAPK activation (TLR4 [2]; lysates 30 min after LPS) | LPS-induced activation of p38 and ERK MAPKs (TLR4 [2]; 20 μM peptide, LPS 30 min)
CC[C@H](C)[C@H](NC(=O)[C@H](CCCCN)NC(=O)[C@@H](NC(=O)[C@H](CCC(N)=O)NC(=O)[C@@H](N)CCCNC(=N)N)[C@@H](C)CC)C(=O)N[C@@H](Cc1c[nH]c2ccccc12)C(=O)N[C@@H](Cc1ccccc1)C(=O)N[C@@H](CCC(N)=O)C(=O)N[C@@H](CC(N)=O)C(=O)N[C@@H](CCCNC(=N)N)C(=O)N[C@@H](CCCNC(=N)N)C(=O)N[C@@H](CCSC)C(=O)N[C@@H](CCCCN)C(=O)N[C@@H](Cc1c[nH]c2ccccc12)C(=O)N[C@@H](CCCCN)C(=O)N[C@@H](CCCCN)C(=O)N[C@@H](CCC(=O)O)C(=O)N[C@@H](CC(C)C)C(=O)N[C@@H](CS)C(=O)N[C@@H](CCC(N)=O)C(=O)N[C@@H](C)C(=O)N[C@@H](CC(C)C)C(=O)N[C@@H](CO)C(=O)N[C@@H](CCCNC(=N)N)C(=O)N[C@@H](CO)C(=O)N[C@@H](Cc1c[nH]cn1)C(=O)N[C@@H](CS)C(=O)N[C@@H](CCCNC(=N)N)C(=O)O [TR5] (H-RQIKIWFQNRRMKWKKELCQALSRSHCR-OH) | inhibited | statistically significant | yes, i.p. | potently inhibited | – | – | – | –
RQIKIWFQNRRMKWKKAAYPPELRFMYYVD [TR9] | inhibited | statistically significant | – | potently inhibited | inhibited | – | – | –
RQIKIWFQNRRMKWKKCLQDAIDHSGFT [TF5] | – | – | Yes, i.p. | – | – | inhibit | inhibit | –
RQIKIWFQNRRMKWKKEGSQASLRCF [TR3] | inhibited | statistically significant | – | potently inhibited | apparent absence of JNK inhibition | – | – | –
RQIKIWFQNRRMKWKKGGFYQVKEAVIHY [TR11] | inhibited | statistically significant | – | potently inhibited | inhibited | – | – | –
RQIKIWFQNRRMKWKKPGFLRDPWCKYQML [TR6] | inhibited | statistically significant | yes, i.p. | potently inhibited | apparent absence of JNK inhibition | – | – | potently inhibited
